From EP1073639B1, “QUINOLINE DERIVATIVES” (Active Biotech AB, priority 1998, dated 1999)
Marks after values point to notes of the source that are not given here.

What was measured:
Format in all cases: in vivo
DBA/1 male mice = test: Collagen induced arthritis (type II collagen); conditions: dose 5 mg/kg p.o.; for Mean score day 35: day 35, arthritic score
Procedure: Collagen induced arthritis
DBA/1 male mice between 8 to 10 weeks of age were used for the experiments. On day 0 the mice were immunized intradermally at the base of the tail with bovine type II collagen (100 µg/mouse) in Freund's complete adjuvant. The treatment was given per os daily on days 3 to 7, 10 to 14, 17 to 21, 24 to 28 and 31 to 35. Fifteen days after immunization mice were inspected for signs of arthritis. The animals were inspected three times a week. Every second or third day individual paws of the arthritic animals were scored by a scale from 0-4 (0 = no arthritis, 1 = arthritis in one of the interphalangeal, metatarsophalangeal or intercarpal joints, 2 = two arthritic joints, 3 = three arthritic joints, 4 = as in 3 but with more severe redness and swelling of the paw). The score for each paw was added to give a maximal attainable score of 16 for each mouse.

female rats = test: Teratogenic effects in the rat (embryotoxicity, external malformations); conditions: for % malformed foetuses: rat
SJL/N female mice = test: Acute experimental autoimmune encephalomyelitis (aEAE); conditions: for % aEAE Inhibition: mice
beagle dogs = test: Beagle Pain Syndrome (BPS); conditions: result in words
Procedure: Beagle Pain Syndrome (BPS)
The compounds were administrated intravenously to beagle dogs. The dosage was given for five consecutive days. The dogs were evaluated for clinical and laboratory signs of the pain syndrome, e.g., fever, increased erythrocyte sedimentation rate (ESR), […] (AP), induction of acute phase proteins and vasculitis.

Clearance in dogs = conditions: higher than roquinimex

Row | SMILES | Incidence (%) day 35 (DBA/1 male mice) | Mean score day 35 (DBA/1 male mice) | % aEAE Inhibition (SJL/N female mice; 0.2 mg/kg p.o.) | % aEAE Inhibition (SJL/N female mice; 1 mg/kg p.o.) | % aEAE Inhibition (SJL/N female mice; 5 mg/kg p.o.) | further results
1 | CCN(C(=O)c1c(O)c2c3c(ccc2n(C)c1=O)OCO3)c1ccccc1 [E, N-ethyl-N-phenyl-1,2-dihydro-4-hydroxy-5,6-methylenedioxy-1-methyl-2-oxo-quinoline-3-carboxamide] | 10% | 0.1 |  |  |  | 
2 | CN(C(=O)c1c(O)c2c(Cl)cccc2n(C)c1=O)c1ccccc1 [Compound G, N-methyl-N-phenyl-1,2-dihydro-4-hydroxy-5-chloro-1-methyl-2-oxo-quinoline-3-carboxamide] |  |  |  |  |  | % malformed foetuses (female rats; 6 mg/kg, route s.c.): 37^a) %
3 | CN(C(=O)c1c(O)c2ccccc2n(C)c1=O)c1ccccc1 [Roquinimex, N-methyl-N-phenyl-1,2-dihydro-4-hydroxy-1-methyl-2-oxo-quinoline-3-carboxamide, reference compound] | 50% | 1.7 | 35% | 40% | 69% | % malformed foetuses (female rats; 10 mg/kg, route p.o.): 9^b) %; % malformed foetuses (female rats; 30 mg/kg, route p.o.): 30^b) %; teratogenic effect in the rat (female rats; result in words): teratogenic; inhibition of EAE in mice (SJL/N female mice; 5 mg/kg, treatment control): 70%; Beagle Pain Syndrome (BPS) (beagle dogs): induce the Beagle Pain Syndrome
4 | CCN(C(=O)c1c(O)c2c(Cl)cccc2n(C)c1=O)c1ccccc1 [Compound B, N-ethyl-N-phenyl-1,2-dihydro-4-hydroxy-5-chloro-1-methyl-2-oxo-quinoline-3-carboxamide] |  |  | 74% | 98% | 96% | % malformed foetuses (female rats; 6 mg/kg, route s.c.): 0^a) %; % malformed foetuses (female rats; 30 mg/kg, route s.c.): 1^a) %; % aEAE Inhibition (SJL/N female mice; 0.04 mg/kg p.o.): 60%
5 | Cn1c(=O)c(C(=O)Nc2ccccc2)c(O)c2ccccc21 [A] |  |  |  |  |  | clearance (Cl) in comparison with roquinimex (Clearance in dogs): 800 fold
6 | CCN(C(=O)c1c(O)c2ccccc2n(C)c1=O)c1ccccc1 [Compound F, N-ethyl-N-phenyl-1,2-dihydro-4-hydroxy-1-methyl-2-oxo-quinoline-3-carboxamide, reference compound] |  |  |  |  | 63% | 
7 | CCN(C(=O)c1c(O)c2c(Br)cccc2n(C)c1=O)c1ccccc1 [D, N-ethyl-N-phenyl-1,2-dihydro-4-hydroxy-5-bromo-1-methyl-2-oxo-quinoline-3-carboxamide] | 30% | 0.4 |  |  |  | 
8 | CCN(C(=O)c1c(O)c2c(OC)cccc2n(C)c1=O)c1ccccc1 [Compound C, N-ethyl-N-phenyl-1,2-dihydro-4-hydroxy-5-methoxy-1-methyl-2-oxo-quinoline-3-carboxamide] |  |  | 71% | 73% | 90% | % aEAE Inhibition (SJL/N female mice; 0.04 mg/kg p.o.): 48%
